How the values were obtained:
[1] = target: T1, FLAG-FKBP12_NLS (Homo sapiens, UniProt P62942); assay: Western blot of stably expressed FLAG-FKBP12_NLS in MDA-MB-231 cells; assay type: cell-based; parameters: expressed in transfected cells; host or cells: HEK293T, MDA-MB-231 and HEK293 DCAF16+/+ and DCAF16-/- clones (lentiviral pCDH-CMV-MCS-EF1-Puro); settings: 1 μM, 8 hours
Description: FLAG-FKBP12 or FLAG-FKBP12_NLS lentivirus was generated by co-transfection of FLAG-FKBP12 or FLAG-FKBP12_NLS, pCMV-dR8.2 and pMD2.G into HEK 293T cells using FuGene 6 transfection reagent (Promega). Virus-containing medium were collected 48 h after transfection, filtered with […] filter, and used to transduce HEK293T and MDA-MB-231 cells in the presence of 10 μg/mL polybrene (Santa Cruz). 72 h after transduction, puromycin (2 μg/mL) was added to cells. HEK293T cells stably expressing FLAG-FKBP12 or FLAG-FKBP12_NLS were obtained after puromycin selection for 7 days. HEK293T cells stably expressing pCDH empty vector were generated in parallel as control.
(§1) Cells were collected and lysed in 1% NP-40 lysis buffer (25 mM Tris-HCl pH 7.4, 150 mM NaCl, 10% glycerol, 1% Nonidet P-40) with complete protease inhibitor cocktail (Roche). Cells were vortexed and sonicated for 5 pulses (40%, 4). The supernatant was collected after centrifugation at 16,000 g for 10 min at 4° C. Protein concentration was determined by DC assay (Bio-Rad). Protein lysate was heated at 95° C. for 5 min in 1× Laemmli sample buffer. Proteins were resolved by 12% or 14% Novex Tris-Glycine Mini Gels (Invitrogen) and transferred to polyvinylidene fluoride (PVDF) membrane (0.2 Bio-Rad). The membrane was blocked with 5% BSA in TBST buffer (0.1% Tween 20, 20 mM Tris-HCl 7.6, 150 mM NaCl) at room temperature for 1 h. The antibody was diluted with fresh 5% BSA in TBST buffer (1:10000 dilution for FLAG, HA and β-Actin, 1:1000 dilution for others) and incubated with membrane (1 h room temperature for FLAG, HA and β-Actin, overnight 4° C. for others). Membrane was washed three times with TBST buffer and incubated with secondary antibody (1:5000 dilution in 5% BSA in TBST) at room temperature for 1 h. Membrane was washed three times with TBST buffer. The chemiluminescence signal in membrane was recorded after developing in ECL or ECL plus western blotting detection reagent using CL-XPosure film (Thermo Scientific). Relative band intensities were quantified using ImageJ.
Target sequence in this assay (P62942 whole entry): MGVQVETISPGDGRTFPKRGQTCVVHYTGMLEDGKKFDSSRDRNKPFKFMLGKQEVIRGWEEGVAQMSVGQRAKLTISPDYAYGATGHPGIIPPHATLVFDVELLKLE

[2] = target: T1, FLAG-FKBP12_NLS; assay: Western blot of FLAG-FKBP12_NLS in DCAF16+/+ and DCAF16−/− HEK293 clones; assay type: cell-based; parameters: expressed in transfected cells; host or cells: HEK293 DCAF16+/+ and DCAF16-/- clones (lentiviral pCDH-CMV-MCS-EF1-Puro)
Description: DCAF16 CRISPR knockout HEK293 cell pools were generated by Synthego using nucleofection of Cas9-gRNA ribonucleoprotein (RNP) complex. Editing efficiency 48 h post nucleofection of cell pool was 88%. HEK293 editing cell pools were subjected to single cell sorting in The Flow Cytometry Core Facility at Scripps Research. Individual cell clone was grown in 96-well plate until the cells were confluent. To confirm the editing in DCAF16 gene, genomic DNAs from each clone were extracted using PureLink Genomic DNA Mini Kit (Invitrogen). DCAF16 gene was amplified by PCR and confirmed by DNA sequencing. Indel analysis was performed using ICE analysis from Synthego.
To confirm DCAF16 knockout at the protein level, lentivirus containing FLAG-FKBP12_NLS was used to infect three wild type DCAF16 clones (clone 6, 17, 18) and three DCAF16 knockout clones (clone 3, 4, 22). Clone 6 stably expressing FLAG-FKBP12_NLS was grown in heavy SILAC DMEM medium for 5 generations. The other clones stably expressing FLAG-FKBP12_NLS were grown in light SILAC DMEM medium for 5 generations. All 6 clones were treated with 5 μM KB02-SLF and 10 μM MG132 for 2 h. Cells were collected and analyzed for FLAG-FKBP12_NLS associating proteins using the same method described below. Proteins from clone 6 (heavy labeled) were combined with the other clones (light labeled) separately and identified by LC-MS/MS.
as §1
Target sequence in this assay (P62942 with tags, fused parts or gaps): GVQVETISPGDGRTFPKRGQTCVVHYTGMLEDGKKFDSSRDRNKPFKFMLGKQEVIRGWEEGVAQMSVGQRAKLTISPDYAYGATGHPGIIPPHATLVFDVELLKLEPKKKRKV

[3] = target: T2, HA-DCAF16 (Homo sapiens, UniProt Q9NXF7); assay: Western blot of HA-DCAF16 in DCAF16−/− cells; assay type: cell-based; settings: KB02-SLF 1.5 μM, 8 hours
T2 construct: expressed in transfected cells; host or cells: HEK293T (A9); DCAF16-/- HEK293 clones (A20); pRK5 vector
Description: as §1

[4] = system: CRL(s); assay: isoTOP-ABPP of ligand-engaged cysteines in HEK293T cells; assay type: cell-based, human; settings: 10 μM KB02-SLF, 2 h
Description: HEK293T cells were treated with DMSO or 10 μM KB02-SLF for 2 h. Cells were collected and subjected to isoTOP-ABPP sample preparation using the same protocol as described in Backus et al., “Proteome-wide covalent ligand discovery in native biological systems”, Nature 534: 570-574 (2016).

[5] = target: T3, BRD4 (Homo sapiens, UniProt O60885); assay: Western blot of endogenous BRD4 in HEK293T cells; assay type: cell-based; settings: HEK293T, 24 hours
T3 construct: degradation of endogenous BRD4 in HEK293T cells; endogenous in cells; host or cells: HEK293T (A10, A16); HEK293 DCAF16+/+ and DCAF16-/- clones (A11)
Description: as §1

T2 sequence (Q9NXF7 whole entry): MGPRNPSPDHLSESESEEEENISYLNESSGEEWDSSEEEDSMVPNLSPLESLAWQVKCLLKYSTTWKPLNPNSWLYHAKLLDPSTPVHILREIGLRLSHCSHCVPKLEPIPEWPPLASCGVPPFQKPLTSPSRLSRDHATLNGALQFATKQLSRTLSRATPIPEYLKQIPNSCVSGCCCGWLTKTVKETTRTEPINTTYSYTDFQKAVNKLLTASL

## CCC(C)(C)C(=O)C(=O)N1CCCC[C@H]1C(=O)O[C@H](CCc1ccc(OC)c(OC)c1)c1cccc(NC(=O)CCOCCOCCNC(=O)COc2ccc3c(c2)CCCN3C(=O)CCl)c1 [KB02-SLF, (R)-1-(3-(3-(2-(2-(2-((1-(2-chloroacetyl)-1,2,3,4-tetrahydroquinolin-6-yl)oxy)acetamido)ethoxy)ethoxy)propanamido)phenyl)-3-(3,4-dimethoxyphenyl)propyl (S)-1-(3,3-dimethyl-2-oxopentanoyl)piperidine-2-carboxylate]
[1]
  degradation of FLAG-FKBP12_NLS in MDA-MB-231 cells: degrades FLAG-FKBP12_NLS
[2]; HEK293 clones 3, 4, 22, 0.2-5 μM, 8 h
  degradation of FKBP12_NLS in DCAF16−/− clones: not in any of the three DCAF16−/− clones
[2]; HEK293 clones 6, 17, 18, 0.2-5 μM, 8 h
  degradation of FKBP12_NLS in DCAF16+/+ clones: supported the degradation of FKBP12_NLS in all three DCAF16+/+ clones
[2]; KB02-SLF 1.5 μM, 8 hours
  FKBP12_NLS degradation in DCAF16−/− cells expressing C58S-, C173S- or C178S-DCAF16: supported KB02-SLF-induced degradation of FKBP12_NLS
  FKBP12_NLS degradation in DCAF16−/− cells with recombinant HA-DCAF16: restored KB02-SLF-induced FKBP12_NLS degradation
[3]
  degradation of HA-DCAF16: degradation of HA-DCAF16 was not observed
[4]
  strongly engaged (>75%) cysteines on CRL(s): cysteines were not observed on CRL(s) that were strongly engaged (>75%)

## Cc1sc2c(c1C)C(c1ccc(Cl)cc1)=N[C@@H](CC(=O)NCCOCCOCCNC(=O)COc1ccc3c(c1)CCCN3C(=O)CCl)c1nnc(C)n1-2 [KB02-JQ1, (S)-2-((1-(2-chloroacetyl)-1,2,3,4-tetrahydroquinolin-6-yl)oxy)-N-(2-(2-(2-(2-(4-(4-chlorophenyl)-2,3,9-trimethyl-6H-thieno[3,2-f][1,2,4]triazolo[4,3-a][1,4]diazepin-6-yl)acetamido)ethoxy)ethoxy)ethyl)acetamide]
[5]
  concentration for degradation of BRD4: 20 to 40 µM
  degradation of BRD4: promoted, in a concentration-dependent manner, the degradation of BRD4
